From patent US20260070922A1, “PYRAZOLE AND IMIDAZOLE DERIVATIVES AS DUAL OREXIN AND KAPPA-OPIOID RECEPTORS MODULATORS COMPOSITION, METHODS FOR TREATING NEUROLOGICAL AND PSYCHIATRIC DISORDERS” (HAGER BIOSCIENCES, LLC, priority 2022, published 2026)

Assays:
[1] = target: T1, Orexin type 1 (OX1R) receptor (Homo sapiens, UniProt O43613); assay: In vitro orexin antagonism assay: intracellular calcium measurement (FLIPR), orexin-A 3 nM as agonist; format: cell-based; conditions: for IC50: first value of IC50/Kb cell; for inhibition at 1 µM: read-out: OX1R, % Inh. @ 1 uM; for Kb: second value of IC50/Kb cell
T1 construct: expressed in transfected cells; host or cells: CHO cells (G418 selection)
T1 sequence (O43613 1-425): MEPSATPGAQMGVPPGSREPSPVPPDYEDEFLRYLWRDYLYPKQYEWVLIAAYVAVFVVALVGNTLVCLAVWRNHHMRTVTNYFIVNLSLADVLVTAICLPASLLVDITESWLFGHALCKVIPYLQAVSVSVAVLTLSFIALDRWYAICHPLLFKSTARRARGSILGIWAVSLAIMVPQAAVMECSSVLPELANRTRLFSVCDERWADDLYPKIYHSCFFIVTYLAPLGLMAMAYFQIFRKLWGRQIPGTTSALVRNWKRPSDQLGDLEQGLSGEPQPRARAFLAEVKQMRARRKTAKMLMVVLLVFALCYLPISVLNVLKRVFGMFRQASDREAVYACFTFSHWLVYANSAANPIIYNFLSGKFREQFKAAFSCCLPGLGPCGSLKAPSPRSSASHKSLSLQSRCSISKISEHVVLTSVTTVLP
Procedure, shortened: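 CHO cells expressing the human orexin receptor were loaded with 3 μM fluo-4 AM plus 5 mM probenecid, then exposed to antagonist for 120 min before 3 nM orexin-A (final) was added on a FLIPR.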

[2] = target: T2, human orexin-2 receptor (OX2R) (Homo sapiens, UniProt O43614); assay: as above; format: cell-based; conditions: for inhibition at 1 µM: read-out: OX2R, % Inh. @ 1 uM; for IC50: first value of IC50/Kb cell; for Kb: second value of IC50/Kb cell
T2 construct: expressed in transfected cells; host or cells: CHO cells (G418 selection)
T2 sequence (O43614 1-444): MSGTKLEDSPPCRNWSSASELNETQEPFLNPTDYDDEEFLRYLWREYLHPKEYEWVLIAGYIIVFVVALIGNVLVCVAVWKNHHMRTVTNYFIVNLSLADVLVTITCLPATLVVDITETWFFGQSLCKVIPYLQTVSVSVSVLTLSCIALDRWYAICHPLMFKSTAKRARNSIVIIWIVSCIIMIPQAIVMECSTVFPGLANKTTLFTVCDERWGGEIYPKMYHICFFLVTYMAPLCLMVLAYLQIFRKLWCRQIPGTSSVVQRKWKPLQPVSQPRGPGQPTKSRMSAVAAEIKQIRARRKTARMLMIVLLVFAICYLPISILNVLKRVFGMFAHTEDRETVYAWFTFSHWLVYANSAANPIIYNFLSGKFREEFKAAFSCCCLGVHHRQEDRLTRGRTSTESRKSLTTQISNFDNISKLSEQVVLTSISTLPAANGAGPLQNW
Procedure, shortened: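 Fluorescence peak on 3 nM orexin-A challenge, read by FLIPR and compared with vehicle, yields IC50 (geometric mean when repeated; may be normalized to an on-plate reference). Antagonists were added 120 min beforehand to fluo-4-loaded recombinant CHO cells expressing human OX1R or OX2R.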

[3] = target: T3, human k-opioid receptor (kOR) (Homo sapiens, UniProt P41145); assay: Human k-opioid (KOP) receptor (agonist radioligand [3H]U-69593) binding assay, transfected RBL cell membranes; conditions: for inhibition at 1 µM: read-out: KOR % Inh. @ 1 uM; for IC50: first value of IC50/Ki cell; for Ki: second value of IC50/Ki cell
T3 construct: expressed in transfected cells; host or cells: RBL cells (membrane homogenates)
T3 sequence (P41145 whole entry): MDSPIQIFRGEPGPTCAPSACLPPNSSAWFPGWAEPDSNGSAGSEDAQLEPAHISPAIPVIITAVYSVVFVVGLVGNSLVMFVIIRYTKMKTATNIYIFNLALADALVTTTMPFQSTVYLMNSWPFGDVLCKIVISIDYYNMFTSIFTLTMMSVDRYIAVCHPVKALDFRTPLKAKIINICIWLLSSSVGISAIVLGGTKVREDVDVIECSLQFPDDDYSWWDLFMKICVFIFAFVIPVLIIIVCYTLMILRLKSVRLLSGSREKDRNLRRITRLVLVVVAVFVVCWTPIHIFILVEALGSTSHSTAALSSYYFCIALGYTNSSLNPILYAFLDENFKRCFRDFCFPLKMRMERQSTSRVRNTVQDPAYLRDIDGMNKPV
Experimental: Human k-Opioid (KOP) Receptor (Agonist Radioligand) Binding Assay
Purpose: Evaluation of the affinity of compounds for the human k-opioid receptor in transfected RBL cells determined in a radioligand binding assay.
Experimental protocol: Cell membrane homogenates (about 80 μg protein) are incubated for 60 min at 22° C. with 0.5 nM [3H]U-69593 in the absence or presence of the test compound in a buffer containing 50 mM Tris-HCl (pH 7.4), 10 mM MgCl2 and 1 mM EDTA. Nonspecific binding is determined in the presence of 10 μM naloxone. Following incubation, the samples are filtered rapidly under vacuum through glass fiber filters ([…], Packard) presoaked with 0.3% PEI and rinsed several times with ice-cold 50 mM Tris-HCl using a 96-sample cell harvester (Unifilter, Packard). The filters are dried then counted for radioactivity in a scintillation counter (Topcount, Packard) using a scintillation cocktail (Microscint 0, Packard). The results are expressed as a percent inhibition of the control radioligand specific binding. The standard reference compound is U-50488, which is tested in each experiment at several concentrations to obtain a competition curve from which its IC50 is calculated.

Structure (SMILES) | IC50 [1] [nM] | inhibition at 1 µM [1] [%] | Kb [1] [nM] | inhibition at 1 µM [2] [%] | inhibition at 1 µM [3] [%] | OX1R, % Inh. @ 1 uM [1] [%] | OX2R, % Inh. @ 1 uM [2] [%] | IC50 [2] [nM] | Kb [2] [nM] | KOR % Inh. @ 1 uM [3] [%] | IC50 [3] [nM] | Ki [3] [nM]
O=C(c1c(-c2ccccc2)nn2c1COCC2)N1CCCC[C@H]1COc1ccc(C(F)(F)F)cn1 [Example 46] | 7 | 94.8 | 1 | 25.3 | 38 | – | – | – | – | – | – | –
O=C(c1c(-c2ccc(F)cc2)nn2ccccc12)N1CCC[C@H]1Cn1ccc(-c2ccc(F)cc2)n1 [Example 55] | 5 | – | 1 | – | – | 100 | 93 | 33 | 5 | 66 | 480 | 260
O=C(c1c(-c2ccc(F)cc2)nn2ccccc12)N1CCC[C@H]1Cn1ccc(-c2ccc(C(F)(F)F)cc2)n1 [Example 56] | 576 | – | 121 | – | – | 59 | 12 | – | – | 76 | 450 | 250
O=C(c1c(-c2ccccc2)nn2c1COCC2)N1CCC[C@H]1Cn1ccc(-c2ccc(F)cc2)n1 [Example 57] | 65 | – | 14 | – | – | 73 | 52 | 773 | 107 | 76 | 440 | 240
O=C(c1c(-c2ccccc2)nn2ccccc12)N1CCC[C@H]1Cn1ccc(-c2ccc(F)cc2)n1 [Example 59] | 4 | – | 0.7 | – | – | 91 | 99 | 11 | 2 | 56 | 470 | 260
O=C(c1c(-c2ccccc2)nn2ccccc12)N1CCC[C@H]1Cn1ccc(-c2ccc(C(F)(F)F)cc2)n1 [Example 60] | 106 | – | 22 | – | – | 78 | 37 | – | – | 63 | 390 | 210
O=C(c1c(-c2ccc(F)cc2)nc2ccccn12)N1CCC[C@H]1Cn1ccc(-c2ccc(F)cc2)n1 [Example 61] | 29 | – | 6 | – | – | 85 | 73 | 76 | 10 | 74 | 280 | 150
O=C(c1c(-c2ccccc2F)nc2ccccn12)N1CCC[C@H]1Cn1ccc(-c2ccc(F)cc2)n1 [Example 62] | 6 | – | 1 | – | – | 96.96 | 85.23 | 26 | 4 | 79 | 200 | 110
O=C(c1c(-c2ccccc2F)nn2ccccc12)N1CCC[C@H]1Cn1ccc(-c2ccc(F)cc2)n1 [Example 63] | 4 | – | 0.8 | – | – | 98 | 100 | 6 | 0.9 | 75 | 280000 | –
O=C(c1c(-c2ccccc2F)nn2ccccc12)N1CCC[C@H]1COc1ccc(C(F)(F)F)cn1 [Example 64] | 11 | 81 | 2 | 67 | 37 | – | – | 275 | 38 | – | – | –
O=C(c1c(-c2ccccc2F)nc2ccccn12)N1CCC[C@H]1COc1ccc(C(F)(F)F)cn1 [Example 65] | 53 | 64 | 11 | 41 | 11 | – | – | – | – | – | – | –
O=C(c1c(-c2ccccn2)nn2ccccc12)N1CCC[C@H]1Cn1cc(-c2ccc(F)cn2)cn1 [Example 206] | – | 67 | – | 83 | – | – | – | 62 | 11 | – | – | –
O=C(c1nc2ccccn2c1-c1ccccn1)N1CCC[C@H]1Cn1ccc(-c2ccc(F)cn2)n1 [Example 207] | 30 | 99 | 6 | 0 | – | – | – | – | – | – | – | –
O=C(c1nc2ccccn2c1-c1ccccn1)N1CCC[C@H]1Cc1nc(-c2ccccn2)no1 [Example 209] | 300 | 75 | 63 | 4 | – | – | – | – | – | – | – | –
O=C(c1nc2ccccn2c1-c1ccccn1)N1CCC[C@H]1Cc1nc(-c2ccc(F)cn2)no1 [Example 210] | 190 | 85 | 40 | 12 | – | – | – | – | – | – | – | –
O=C(c1nn2c(c1-c1ccccn1)COCC2)N1CCC[C@H]1Cn1ccc(-c2ccccn2)n1 [Example 211] | 19 | 100 | 4 | 28 | – | – | – | – | – | – | – | –
O=C(c1nn2c(c1-c1ccccn1)COCC2)N1CCC[C@H]1Cn1ccc(-c2ccc(F)cn2)n1 [Example 212] | 35 | – | 7 | – | – | 96 | 46 | – | – | – | – | –
O=C(c1nn2c(c1-c1ccccn1)COCC2)N1CCC[C@H]1Cn1cc(-c2ccccn2)cn1 [Example 213] | 220 | 77 | 47 | 33 | – | – | – | – | – | – | – | –
O=C(c1nn2c(c1-c1ccccn1)COCC2)N1CCC[C@H]1Cn1cc(-c2ccc(F)cn2)cn1 [Example 214] | – | 66 | – | 32 | – | – | – | – | – | – | – | –
O=C(c1nc2n(c1-c1ccccn1)CCOC2)N1CCC[C@H]1Cn1ccc(-c2ccccn2)n1 [Example 215] | – | 64 | – | 12 | – | – | – | – | – | – | – | –
O=C(c1nc2n(c1-c1ccccn1)CCOC2)N1CCC[C@H]1Cn1ccc(-c2ccc(F)cn2)n1 [Example 216] | 160 | 70 | 34 | 24 | – | – | – | – | – | – | – | –
O=C(c1nc2n(c1-c1ccccn1)CCOC2)N1CCC[C@H]1Cn1cc(-c2ccccn2)cn1 [Example 217] | 210 | 76 | 45 | 57 | – | – | – | – | – | – | – | –
O=C(c1nc2n(c1-c1ccccn1)CCOC2)N1CCC[C@H]1Cn1cc(-c2ccc(F)cn2)cn1 [Example 218] | 120 | 79 | 25 | 74 | – | – | – | – | – | – | – | –
O=C(c1nc2n(c1-c1ccccn1)CCOC2)N1CCC[C@H]1Cc1nc(-c2ccccn2)no1 [Example 219] | – | 25 | – | 0 | – | – | – | – | – | – | – | –
O=C(c1nc2n(c1-c1ccccn1)CCOC2)N1CCC[C@H]1Cc1nc(-c2ccc(F)cn2)no1 [Example 220] | – | 21 | – | 0 | – | – | – | – | – | – | – | –
O=C(c1nn2c(c1-c1ccccn1)CCOC2)N1CCC[C@H]1Cc1nc(-c2ccccn2)no1 [Example 221] | – | 56 | – | 0 | – | – | – | – | – | – | – | –
O=C(c1nn2c(c1-c1ccccn1)CCOC2)N1CCC[C@H]1Cc1nc(-c2ccc(F)cn2)no1 [Example 222] | – | 55 | – | 12 | – | – | – | – | – | – | – | –
O=C(c1nn2c(c1-c1ccccn1)COCC2)N1CCC[C@H]1COc1ccc(C(F)(F)F)cn1 [Example 223] | 5 | – | 1 | – | – | 97 | 21 | – | – | – | – | –
